Data from patent US10940139B2, “Compounds that interact with the Ras superfamily for the treatment of cancers, inflammatory diseases, rasopathies, and fibrotic disease” (Shy Therapeutics LLC, priority 2017, dated 2021).
Read-outs that look alike come from different tables or passages of the source.

Experiments:
[1] = biological target: KRas G12D/Q61H double mutant (Homo sapiens (Human), UniProt P01116, G12D/Q61H); test: Ras GTP binding domain inhibition assay (labeled GTP)
Outline: (§1)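 Fluorescence read-out of Cy3-/Cy5-GTP remaining bound to nickel-immobilized His-KRas after washes. Protein was coated overnight at 4° C, then exposed to compound for 3 h at room temperature before a 45 min labeled-GTP incubation.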

[2] = biological target: KRas Q61H mutant (Homo sapiens (Human), UniProt P01116, Q61H); test: as above; details: 20 μM compound
Sequence of KRas Q61H mutant (P01116-2 other isoform, or with tags, fused parts or gaps Q61H): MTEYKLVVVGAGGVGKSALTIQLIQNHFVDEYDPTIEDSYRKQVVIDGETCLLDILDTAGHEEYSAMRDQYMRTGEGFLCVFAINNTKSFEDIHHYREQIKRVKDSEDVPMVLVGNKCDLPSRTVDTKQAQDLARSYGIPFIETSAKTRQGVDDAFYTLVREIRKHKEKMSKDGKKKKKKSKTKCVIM
Outline: as §1

[3] = biological target: KRas G12C/Q61H double mutant (Homo sapiens (Human), UniProt P01116, G12C/Q61H); test: as above; details: 20 μM compound
Sequence of KRas G12C/Q61H double mutant (P01116-2 other isoform, or with tags, fused parts or gaps G12C/Q61H): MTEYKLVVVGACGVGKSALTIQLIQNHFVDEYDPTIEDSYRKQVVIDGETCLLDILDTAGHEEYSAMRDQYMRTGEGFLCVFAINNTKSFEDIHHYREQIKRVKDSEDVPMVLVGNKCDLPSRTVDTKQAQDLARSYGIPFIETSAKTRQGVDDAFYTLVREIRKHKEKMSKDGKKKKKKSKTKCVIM
Outline: as §1

[4] = biological target: Rac-1 (Homo sapiens (Human), UniProt P63000); test: Rac inhibition assay (labeled GTP); type: binding; details: read-out: Rac-1 % Inh.
[5] = biological target: KRas G12D mutant protein (Homo sapiens (Human), UniProt P01116, G12D); test: Ras GTP binding domain inhibition assay (labeled GTP); details: at 20 μM; read-out: KRas G12D % Inh.
Sequence of KRas G12D mutant protein (P01116-2 other isoform, or with tags, fused parts or gaps G12D): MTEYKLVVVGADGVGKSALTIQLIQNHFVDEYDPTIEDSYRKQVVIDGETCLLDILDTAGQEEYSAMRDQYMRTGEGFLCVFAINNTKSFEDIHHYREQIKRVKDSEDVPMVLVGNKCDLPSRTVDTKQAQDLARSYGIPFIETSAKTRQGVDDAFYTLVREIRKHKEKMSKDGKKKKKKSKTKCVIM

[6] = biological target: Rho-A (Homo sapiens (Human), UniProt P61586); test: Rho inhibition assay (labeled GTP); type: binding; details: read-out: Rho-A % Inh.
Sequence of Rho-A (P61586 whole entry): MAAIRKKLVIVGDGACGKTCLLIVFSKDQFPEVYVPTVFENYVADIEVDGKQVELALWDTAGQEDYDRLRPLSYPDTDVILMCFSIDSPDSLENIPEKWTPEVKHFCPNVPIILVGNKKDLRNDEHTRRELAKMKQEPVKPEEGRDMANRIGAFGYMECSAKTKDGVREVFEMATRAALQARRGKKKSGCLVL

[7] = 20 μM compound, KRas G12D/Q61H double mutant, read-out: % Inhibition at 20 μM of K-Ras mutant and wild-type protein, KRas G12D Q61H
[8] = KRas Q61H, read-out: % Inhibition at 20 μM of K-Ras mutant and wild-type protein, KRas Q61H
[9] = KRas G12C/Q61H double mutant, read-out: % Inhibition at 20 μM of K-Ras mutant and wild-type protein, KRas G12C Q61H
[10] = 20 μM compound, read-out: % Inhibition at 20 μM KRas G12D Q61H
[11] = read-out: % Inhibition at 20 μM KRas Q61H
[12] = read-out: % Inhibition at 20 μM KRas G12C Q61H
[13] = at 20 μM, read-out: KRas G12D Q61H % Inh.

Sequence of KRas G12D/Q61H double mutant (P01116-2 other isoform, or with tags, fused parts or gaps G12D/Q61H): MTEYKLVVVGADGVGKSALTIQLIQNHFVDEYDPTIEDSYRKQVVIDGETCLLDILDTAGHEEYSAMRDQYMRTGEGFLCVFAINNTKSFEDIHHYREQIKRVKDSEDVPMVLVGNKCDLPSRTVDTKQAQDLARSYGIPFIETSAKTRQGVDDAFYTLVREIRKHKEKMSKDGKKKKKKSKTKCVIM

| inhibition at 20 µM [1, 7] [%] | inhibition at 20 µM [2, 8] [%] | inhibition at 20 µM [3, 9] [%] | inhibition at 20 µM [1, 10] [%] | inhibition at 20 µM [2, 11] [%] | inhibition at 20 µM [3, 12] [%] | inhibition at 20 µM [1, 13] [%] | inhibition at 20 µM [4] [%] | inhibition at 20 µM [5] [%] | inhibition at 20 µM [6] [%] | SMILES |
| --- | --- | --- | --- | --- | --- | --- | --- | --- | --- | --- |
| 1 to 25 | 1 to 25 | 1 to 25 |  |  |  |  |  |  |  | Cn1ccnc1-c1nc(O)c2c(-c3ccccc3)c(-c3ccccc3)sc2n1 [drawing 3536] |
|  |  |  | 25 to 50 | 1 to 25 | 25 to 50 |  |  |  |  | Cc1sc2c(N)nc(-c3ccccn3)nc2c1Br [drawing 2893] |
| 1 to 25 | 0 | 25 to 50 |  |  |  |  |  |  |  | COc1cnc(CNC(=O)c2sc3c(O)nc(-c4ccccn4)nc3c2C)[nH]c1=O [drawing 3524] |
| 0 | 0 | 1 to 25 |  |  |  |  |  |  |  | Nc1nc(O)c2sc(-c3cccc(C(=O)NCc4ncc[nH]4)c3)cc2n1 [drawing 3545] |
| 25 to 50 | 25 to 50 | 25 to 50 |  |  |  |  |  |  |  | Cc1sc2c(O)nc(-c3ccccn3)nc2c1C(=O)O [drawing 3482] |
|  |  |  | 25 to 50 | 25 to 50 | 25 to 50 |  |  |  |  | COC(=O)c1csc2nc(-c3ccccn3)nc(N)c12 [drawing 2895] |
| 0 | 0 | 1 to 25 |  |  |  |  |  |  |  | Cc1ccc(-c2cc3nc(-c4ccccn4)nc(O)c3s2)cc1 [drawing 3555] |
|  |  |  |  |  |  | 51 to 75 | 51 to 75 | 51 to 75 | 51 to 75 | Oc1nc(-c2ccccn2)nc2c(-c3ccc(F)cc3F)csc12 [drawing 3743] |
|  |  |  |  |  |  | 51 to 75 | 76 to 100 | 51 to 75 | 51 to 75 | CC(C)(O)c1ccc(-c2csc3c(O)nc(-c4ccccn4)nc23)c(F)c1 [drawing 3752] |
|  |  |  |  |  |  | 51 to 75 | 51 to 75 | 25 to 50 | 51 to 75 | Oc1nc(-c2ccccn2)nc2c(-c3cccc4c3OCO4)csc12 [drawing 3721] |
|  |  |  |  |  |  | 51 to 75 | 76 to 100 | 51 to 75 | 76 to 100 | CC(C)Cc1csc2c(O)nc(-c3ccccn3)nc12 [drawing 3813] |
|  |  |  |  |  |  | 51 to 75 | 76 to 100 | 51 to 75 | 76 to 100 | O=C(CCc1cncnc1)Nc1nc(-c2ccccn2)nc2sccc12 [drawing 3763] |
|  |  |  |  |  |  | 51 to 75 | 51 to 75 | 51 to 75 | 51 to 75 | Cc1sc2c(O)nc(-c3ccccn3)nc2c1C(=O)N1CCN(c2ccccc2)CC1C (stereo not drawn) [drawing 3828] |
|  |  |  |  |  |  | 51 to 75 | 76 to 100 | 76 to 100 | 76 to 100 | O=C(CCn1ccnc1)Nc1nc(-c2ccccn2)nc2sccc12 [drawing 3761] |
|  |  |  |  |  |  | 25 to 50 | 51 to 75 | 25 to 50 | 51 to 75 | O=c1[nH]c(-c2ccccn2)nc2c([C@@H]3O[C@H](CO)[C@@H](O)[C@H]3O)csc12 [drawing 3845] |
|  |  |  |  |  |  | 51 to 75 | 76 to 100 | 51 to 75 | 76 to 100 | COc1cnc(-c2cnc[nH]2)nc1O [drawing 3834] |
|  |  |  |  |  |  | 25 to 50 | 76 to 100 | 51 to 75 | 51 to 75 | COc1ccccc1-c1csc2c(O)nc(-c3ccccn3)nc12 [drawing 3742] |
|  |  |  |  |  |  | 51 to 75 | 76 to 100 | 51 to 75 | 76 to 100 | Cc1nn(C(C)C)cc1-c1csc2c(O)nc(-c3ccccn3)nc12 [drawing 3825] |
|  |  |  |  |  |  | 51 to 75 | 51 to 75 | 51 to 75 | 25 to 50 | Cc1sc2c(O)nc(-c3ccccn3)nc2c1-c1ccncc1 [drawing 3816] |
|  |  |  |  |  |  | 25 to 50 | 25 to 50 | 25 to 50 | 51 to 75 | COc1nc(-c2cn(C)cn2)nc2sc(-c3ccncc3)c(-c3ccccc3)c12 [drawing 3849] |

| inhibition at 20 µM [1, 7] [%] | inhibition at 20 µM [2, 8] [%] | inhibition at 20 µM [3, 9] [%] | inhibition at 20 µM [1, 10] [%] | inhibition at 20 µM [2, 11] [%] | inhibition at 20 µM [3, 12] [%] | inhibition at 20 µM [1, 13] [%] | inhibition at 20 µM [4] [%] | inhibition at 20 µM [5] [%] | inhibition at 20 µM [6] [%] | SMILES |
| --- | --- | --- | --- | --- | --- | --- | --- | --- | --- | --- |
|  |  |  |  |  |  | 25 to 50 | 51 to 75 | 51 to 75 | 25 to 50 | Cc1sc2c(O)nc(-c3ccccn3)nc2c1-c1cccnc1 [drawing 3786] |
|  |  |  |  |  |  | 51 to 75 | 76 to 100 | 51 to 75 | 76 to 100 | COc1cnc(-c2ccccn2)nc1O [drawing 3787] |
|  |  |  |  |  |  | 51 to 75 | 76 to 100 | 25 to 50 | 51 to 75 | COc1nc(-c2ccccn2)nc2c(C3CCCC3)csc12 [drawing 3789] |
|  |  |  |  |  |  | 51 to 75 | 76 to 100 | 51 to 75 | 76 to 100 | COc1ccnc(-c2nc(O)c3c(Cl)csc3n2)c1 [drawing 3689] |
|  |  |  |  |  |  | 51 to 75 | 76 to 100 | 51 to 75 | 76 to 100 | Cc1cnc(-c2ccccn2)nc1NC(=O)Cc1ccc2cnccc2c1 [drawing 3728] |
|  |  |  |  |  |  | 25 to 50 | 76 to 100 | 76 to 100 | 76 to 100 | COc1cccc(CN2CCN(C(=O)c3csc4c(O)nc(-c5ccccn5)nc34)CC2)c1 [drawing 3652] |
|  |  |  |  |  |  | 51 to 75 | 76 to 100 | 51 to 75 | 76 to 100 | COc1cnc(-c2cn(C)cn2)nc1O [drawing 3815] |
|  |  |  |  |  |  | 51 to 75 | 76 to 100 | 76 to 100 | 76 to 100 | OCC1(c2ccc(-c3csc4c(O)nc(-c5ccccn5)nc34)cc2)CC1 [drawing 3758] |
|  |  |  |  |  |  | 76 to 100 | 76 to 100 | 51 to 75 | 76 to 100 | O=C(c1csc2c(O)nc(-c3ccccn3)nc12)N1CC2CC1CN2c1ccccc1 (stereo not drawn) [drawing 3710] |
|  |  |  |  |  |  | 25 to 50 | 51 to 75 | 25 to 50 | 51 to 75 | Nc1nc(-c2ccccn2)nc2c(-c3ccccc3)csc12 [drawing 3731] |
|  |  |  |  |  |  | 25 to 50 | 51 to 75 | 25 to 50 | 51 to 75 | CNC(=O)c1ccc(-c2csc3c(O)nc(-c4ccccn4)nc23)cc1C [drawing 3757] |
|  |  |  |  |  |  | 51 to 75 | 76 to 100 | 51 to 75 | 51 to 75 | COc1ccnc(-c2nc(O)c3ccsc3n2)c1 [drawing 3627] |
|  |  |  |  |  |  | 25 to 50 | 51 to 75 | 25 to 50 | 76 to 100 | COc1ccc(COC[C@H]2OC(c3csc4c(=O)[nH]c(-c5ccccn5)nc34)[C@H](O)[C@@H]2O)cc1 (stereo partly drawn) |
|  |  |  |  |  |  | 51 to 75 | 76 to 100 | 51 to 75 | 76 to 100 | COc1ccc(-c2csc3c(O)nc(-c4ccccn4)nc23)c(C)c1 [drawing 3753] |
|  |  |  |  |  |  | 51 to 75 | 51 to 75 | 51 to 75 | 51 to 75 | Oc1nc(-c2ccccn2)nc(Oc2cccc(C(F)(F)F)c2)c1O [drawing 3876] |
|  |  |  |  |  |  | 51 to 75 | 76 to 100 | 51 to 75 | 76 to 100 | O=S1(=O)CCN(Cc2cccc(-c3csc4c(O)nc(-c5ccccn5)nc34)c2)CC1 [drawing 3736] |
|  |  |  |  |  |  | 25 to 50 | 51 to 75 | 51 to 75 | 25 to 50 | Oc1nc(-c2ccccn2)nc2c(-c3cc(F)ccc3OC(F)F)csc12 [drawing 3732] |
|  |  |  |  |  |  | 51 to 75 | 76 to 100 | 51 to 75 | 51 to 75 | Cn1nnc2ccc(-c3csc4c(O)nc(-c5ccccn5)nc34)cc21 [drawing 3733] |
|  |  |  |  |  |  | 51 to 75 | 25 to 50 | 51 to 75 | 51 to 75 | Oc1nc(-c2ccccn2)nc2cc(-c3ccccc3)sc12 [drawing 3880] |
|  |  |  |  |  |  | 51 to 75 | 76 to 100 | 51 to 75 | 76 to 100 | Cc1sc2c(O)nc(-c3ccccn3)nc2c1-c1ccccc1Cl [drawing 3833] |

| SMILES | inhibition at 20 µM [1, 7] [%] | inhibition at 20 µM [2, 8] [%] | inhibition at 20 µM [3, 9] [%] | inhibition at 20 µM [1, 10] [%] | inhibition at 20 µM [2, 11] [%] | inhibition at 20 µM [3, 12] [%] | inhibition at 20 µM [1, 13] [%] | inhibition at 20 µM [4] [%] | inhibition at 20 µM [5] [%] | inhibition at 20 µM [6] [%] |
| --- | --- | --- | --- | --- | --- | --- | --- | --- | --- | --- |
| COc1ccc(CCC(=O)Nc2nc(-c3ccccn3)nc3sccc23)cn1 [drawing 3812] |  |  |  |  |  |  | 51 to 75 | 76 to 100 | 51 to 75 | 76 to 100 |
| O=C(COCc1ccnc(O)c1)Nc1nc(-c2ccccn2)nc2sccc12 [drawing 3729] |  |  |  |  |  |  | 51 to 75 | 51 to 75 | 25 to 50 | 51 to 75 |
| Oc1nc(-c2ccccn2)nc2c(-c3ccsc3)csc12 [drawing 3747] |  |  |  |  |  |  | 25 to 50 | 76 to 100 | 51 to 75 | 51 to 75 |
